Reference: PubChem BioAssay AID2305 (GlaxoSmithKline (GSK), 2010)

Test system: P. falciparum 3D7 growth, pLDH absorbance
Assay: P. falciparum 3D7 growth inhibition, dose response, strain 3D7 (AID 2305)

SMILES	IC50 [nM]
N#Cc1c(N2CCCCCC2)nc(N)c2c(N)nc3c(c12)CC(=O)N3c1ccc(F)cc1	210
CC(=NN=C(N)N)c1ccc2ccc3ccccc3c2c1	890
COc1ccc2c(NN=Cc3ccccc3F)ccnc2c1	210
CCCCCCCCCCN1C(=O)C2C(CCCCNC(C)=O)NC3(C(=O)N(Cc4ccc(C(C)(C)C)cc4)c4ccccc43)C2C1=O (configuration not stated)	990
Oc1ccccc1CCNC1CCc2ccccc2C1 (configuration not stated)	930
OC(CNc1ccnc(Nc2ccc(Cl)cc2)n1)c1ccc(C(F)(F)F)cc1 (configuration not stated)	770
O=C(Nc1ccc(C(F)(F)F)cc1)c1cccc(S(=O)(=O)NC2CCN(CC3CCCCC3)CC2)c1	850
Nc1nccc(-c2ccc3c(-c4cccc(F)c4)cnc(N)c3c2)n1	1020
COc1cc2nc(NCC3CCN(c4nc(N)c5cc(OC)c(OC)cc5n4)CC3)nc(N)c2cc1OC	780
O=C(Nc1ccc(OC2CCN(Cc3ccsc3)C2)c(Cl)c1)c1ccc2ncccc2c1 (configuration not stated)	970
COC(=O)C(=O)c1c(-c2ccccc2)c(-c2ccc(OC)c(OC)c2)c2c3cc(OC)c(OC)cc3ccn12	640
CN(C)c1ccc(-c2csc(C(=O)NCC3CCN(CCC(C)(C)C)C3)c2)cc1 (configuration not stated)	1500
NC(=O)c1cccc(Nc2nccc(Nc3ccc4[nH]c(-c5ccccc5)cc4c3)n2)c1	780
COc1ccc2nc(C)cc(NN=Cc3ccccc3[N+](=O)[O-])c2c1	180
O=C(CCc1cnc[nH]1)Nc1cccc(-c2cccc(-c3nc4ccc(C(F)(F)F)cc4[nH]3)c2)c1	130
N#Cc1ccc2c(c1)CCN(CCC1CCC(NC(=O)/C=C/c3cccc4cc[nH]c34)CC1)CC2 (configuration not stated)	1090
Cc1ccc(NC(=O)NC2CCN(c3ccnc4cc(Cl)ccc34)CC2)cc1	320
Cc1[nH]c(C)c(-c2ccc(OCc3cccc(C(F)(F)F)c3)nc2)c(=O)c1Br	40
O=C(N[C@H](Cc1ccc(Cl)cc1)C(=O)N1CCN(c2ccnc3cc(Cl)ccc23)CC1)[C@H]1Cc2ccccc2CN1	420
COc1nc2c(N3CCN(CCNCc4ccc5c(n4)NC(=O)CS5)CC3)ccnc2cc1F	710
[O-]c1n[n+](C2CCCCC2)no1	930
O=C(Nc1ccc(Cl)cc1F)NC1CCN(CCCCCNC(=O)[C@@H]2C[C@H]2c2ccc(Cl)c(Cl)c2)CC1	510
CN(CCN1CCC(c2c[nH]c3ccccc23)CC1)C(=O)OCCCCCNC(=O)/C=C/c1ccc(Cl)c(Cl)c1	680
CC(C)CNCc1ccc(-c2ccc(CNC3CCN(Cc4ccccc4)CC3)cc2)cc1	560
CC[C@H]1CN2CC[C@@H]1C[C@H]2[C@H](O)c1cc(N2CCC(c3ccccc3)CC2)nc2ccc(OC)cc12	350

SMILES	IC50 [nM]
CC1(C)N=C(N)N=C(N)N1OCCCNC(=O)c1ccc(C(=O)NCCCON2C(N)=NC(N)=NC2(C)C)cc1	20
CN(C)CCCN1CCN(C(=O)c2cc3cc(-c4ccccc4)ccc3n2S(=O)(=O)c2ccccc2)CC1	120
Cc1ccc(CN2CCCN(Cc3cccc(C(=O)Nc4ccc(C(C)(C)C)cc4)c3)CC2)s1	1130
N=c1c2c(n(Cc3ccc(Cl)cc3Cl)c3c1CCC3)CCCC2	350
Oc1ccc(-c2cncc(NCc3ccc(F)c(F)c3)c2)cc1	770
CCCCCSc1cc(O)c(C(CNC)C(C)C)cc1OC (configuration not stated)	160
CC(=O)Nc1ccc(CN(Cc2ccc(F)cc2)Cc2ccc3c(c2)OCO3)cc1	940
Nc1nc(N)c2c(ccc3c2ccn3Cc2ccc(OCc3ccccc3)cc2)n1	930
O=C(NCc1ccc(Cl)c(Cl)c1)c1ccc(-c2nc3ccc(F)cc3[nH]2)cc1	1030
COc1cccc(-c2cc(C(F)(F)F)n3ncc(C(=O)Nc4cc(C)ccc4O)c3n2)c1	160
O=C(CSc1n[nH]c(-c2ccccc2Br)n1)c1c[nH]c2ccccc12	980
CC1CCC(C(C)C)C(OC(=O)CSc2nnc3c(n2)[nH]c2ccccc23)C1 (configuration not stated)	930
CNc1ccc(CNCc2cccc(-c3ccc(-c4nc5c(C)cccc5[nH]4)s3)c2)cc1	990
O=C(COc1cccc([N+](=O)[O-])c1)Nc1ccc(-c2nc3ccccc3[nH]2)cc1	750
Cc1occc1C(=O)Nc1nc(-c2ccccn2)nc2ccsc12	900
Fc1cccc(C=NNc2ccnc3ccc(C(F)(F)F)cc23)c1	730
CCc1ccc(C2CCN(CCCCNC(=O)c3ccc(NC(=O)c4ccc(Cl)cc4)cc3)CC2)cc1	650
COc1ccc(-c2nc(NC(=O)CSc3ccc([N+](=O)[O-])cc3)sc2C)cc1	140
COc1ccnc(NCCCNCc2cn(S(=O)(=O)c3ccccc3)c3ccccc23)c1	790
CC1(C)CCC(C)(C)c2c1ccc(C1CCN(CCCCNC(=O)c3ccc(-c4ccc(C#N)cc4)cc3)CC1)c2OCC(N)=O	420
CC(C)C1CCc2nc(N)nc(N)c2C1 (configuration not stated)	140
O=C1OC(c2cc3ccccc3n2S(=O)(=O)c2ccccc2)(c2cc3ccccc3n2S(=O)(=O)c2ccccc2)c2ccccc21	850
CNC(=O)c1cc(Nc2nnc(-c3ccc(C)c(S(=O)(=O)NC4CCCCC4)c3)c3ccccc23)ccc1OC	900
O=C(/C=C/c1ccc(Cl)c(Cl)c1)NCCCCCN1CCC(NC(=S)Nc2cccc(Cl)c2)CC1	870
Cc1cccc2[nH]c(-c3ccc(-c4cccc(CNCc5cccc(N)c5)c4)s3)nc12	520

SMILES	IC50 [nM]
CC(C)Cn1c(Sc2ccc(C#N)c([N+](=O)[O-])c2)nnc1-c1ccccc1Cl	900
Cc1cccc(C)c1C1CCN(CCCCNC(=O)c2cc3ccccc3[nH]2)CC1	890
Cc1cccc(-c2ccc3c(c2)CC(NCc2cccc(-n4ccnc4)c2)C3)c1 (configuration not stated)	870
Nc1ncc(-c2cccc(F)c2)cc1-c1nc2ccc(F)cc2[nH]1	180
CCc1cn2c3c(cc(C(=O)N[C@@H](Cc4ccccc4)[C@H](O)CNC(C)C)cc13)N(C)S(=O)(=O)C2	320
CCN(CCCN1CCCCC1)c1cc(C)nc(Nc2cc(Br)ccc2C)n1	410
O=[N+]([O-])c1ccc2c(-c3ccccc3)c(-c3ccccc3)n(O)c2c1	990
CC1(C)CN(CCC2CCC(NC(=O)/C=C/c3ccccc3F)CC2)Cc2ccc(C#N)cc21 (configuration not stated)	1110
O=C(NCC1CN(Cc2ccc(N3CCCC3)o2)CCCO1)c1ccc2c(c1)OCO2 (configuration not stated)	840
O=C(Nc1ccc(-c2cccc(-c3nc4ccc(C(F)(F)F)cc4[nH]3)c2)cc1)c1cccnc1	720
CCC(CO)NCC(O)Cn1c2ccc(Br)cc2c2cc(Br)ccc21 (configuration not stated)	780
CN1CCN(c2cc3c(cc2Cl)CCN3C(=O)Nc2ccc(NC(=O)c3ccc(C(F)(F)F)cc3)cc2)CC1	510
O=S(=O)(Nc1cccc(CCN2CCC(N3CCCCC3)CC2)c1)c1cccc2cccnc12	850
Fc1ccc2nc(-c3cccc(-c4cccc(CN5CCN(c6cnccn6)CC5)c4)c3)[nH]c2c1	1060
Cc1cc(N2CCCC2)nc(Nc2ccc(NC(=O)c3ccccc3F)cc2)n1	920
Cc1nc(N)nc(N)c1OCc1cccc2ccccc12	70
Clc1ccc(-c2ccc(CNCCCN3CCCC3)cc2)cc1	1060
Cc1cc(NCCc2cccc(F)c2)nc(/N=C(\N)Nc2cccc(C(F)(F)F)c2)n1	150
CCOc1ccc2nc3cc([N+](=O)[O-])ccc3c(N)c2c1	140
CS(=O)(=O)CCNCc1ccc(-c2cc3c(Nc4ccc(OCc5cccc(F)c5)c(Cl)c4)ncnc3s2)[nH]1	840
Nc1cccc(CNCc2cccc(-c3cccc(-c4nc5ccc(C(F)(F)F)cc5[nH]4)c3)c2)c1	510
CCN(CC)CCN(Cc1ccc(-c2ccc(C(F)(F)F)cc2)cc1)C(=O)Cn1cc(CCCc2cccc(F)c2F)c(=O)c2ccccc21	1060
O=C(/C=C/c1ccc(Cl)c(Cl)c1)NCCCCCN1CCC(NC(=O)Nc2ccc(C(F)(F)F)cc2)CC1	750
COc1ccc(Nc2ncc3c(-c4cccc(NC(=O)Cc5ccc(O)cc5)c4)c[nH]c3n2)cc1OC	570
CN(C)CC1CCCN1Cc1ccccc1-c1cnn(C)c(=O)c1Oc1ccc(F)cc1 (configuration not stated)	1220

SMILES	IC50 [nM]
COc1c(O)cc2oc(-c3ccc(O)cc3)cc(=O)c2c1O	770
COc1ccccc1NC(=O)CSc1nc2cccnc2n1-c1ccccc1OC	360
O=C(Nc1ccc(F)cc1)NC1CCN(CCCCCNC(=O)[C@@H]2C[C@H]2c2ccc(Cl)c(Cl)c2)CC1	990
O=C(N[C@@H](Cc1ccccc1)[C@H](O)CNC1CCc2ccccc2C1)c1cc(C2CCCC2)cc(N2CCCC2=O)c1 (some centres not stated)	160
CC1(C(=O)Nc2ccc([N+](=O)[O-])cc2O)CC2c3ccccc3C1c1ccccc12 (configuration not stated)	710
COc1ccc2nccc([C@@H](O)CN3CCC(NCc4nc5ccc(F)cc5[nH]4)CC3)c2c1	730
Cc1[nH]nc2ccc(-c3cc(OC[C@@H](N)Cc4ccccc4)cnc3-c3ccc(OCc4cccc(F)c4)cc3)cc12	730
O=C(Nc1ccc(Cn2ncc(N3CCCNCC3)c(Cl)c2=O)cc1)Nc1cc(F)cc(C(F)(F)F)c1	770
Cc1ccc(F)c(OCC2CCN(c3ncc(C(=O)NC4CC4)cc3Cl)CC2)c1	900
CC1CN(Cc2ccc(-c3ccc(-c4nc5ccc(F)cc5[nH]4)cc3)cc2)CC(C)O1 (configuration not stated)	560
CCC(C)OC(=O)C1=C(C)NC2=C(C(=O)CC(c3ccc(OC)c(OC)c3)C2)C1c1ccc(C)o1 (configuration not stated)	900
O=C(c1cc(C(=O)NCc2ccc(Cl)cc2)c(=O)n(Cc2ccc(Cl)cc2)c1)c1cc(Cl)ccc1O	1400
O=C(Nc1ccsc1)Nc1cccc(-c2cccc(-c3nc4ccccc4[nH]3)c2)c1	120
Cc1noc(C)c1-c1cccc(CNCc2ccc(-c3ccc(-c4nc5c(C)cccc5[nH]4)cc3)cc2)c1	240
COc1cccc(CCNC(C)Cc2ccc(OCCCCOc3ccccc3)cc2)c1 (configuration not stated)	740
Oc1ccc(Cl)cc1-c1cc(C(F)(F)F)nc(-c2ccccc2)n1	750
CC(C)COc1ccc(Cl)cc1Cc1ccc(-c2nc3c(cnc4ccccc43)[nH]2)o1	1260
COc1ccc(NC(=O)Nc2cccc(-c3ccncc3)c2)cc1N1CCN(C)CC1	550
C[C@H](Cc1ccc(OCCCCCCOc2ccc(C[C@@H](C)NC[C@H](O)c3cccc(Cl)c3)cc2)cc1)NC[C@H](O)c1cccc(Cl)c1	300
Cc1cccn2c(=O)c3cc(C(=O)NCCc4ccccc4)c(=N)n(CCCOC(C)C)c3nc12	480
O=C(Nc1ccc(N2CCCCC2)c(Cl)c1)c1ccco1	410
CC1CN(Cc2ccc(-c3ccc(-c4nc5ccccc5[nH]4)cc3)cc2)CC(C)O1 (configuration not stated)	520
